According to patent US20170172450A1, “SYSTEM AND METHODS FOR QUANTITATIVELY DESCRIBING BIOPHYSICAL MARKERS” (STC.UNM, priority 2014, published 2017):

Columns and labels:
[1] = breast tumors of patients; cited from earlier work
[2] = dose of 300 mg/m^2; cited from earlier work
[3] = Gemcitabine incorporation into DNA of cells in pancreatic tumor and normal pancreas (punch biopsies, Advion assay); assay type: in vivo, human
Method: Pancreatic resection was performed using standard techniques and major surgical complications were defined as previously described. Gemcitabine was administered intravenously at 500 mg/m^2 for the first 2 patients (per IRB safety recommendations) and then subsequently at 1000 mg/m^2 with an infusion pump at a fixed dose rate of 10 mg/m^2/min (over 50 min and 100 min respectively) and was delivered at the start of operation and concluded prior to specimen removal. Serum samples were collected at regular intervals during the operation to determine gemcitabine pharmacokinetics.
Immediately after specimen collection, tumors were bivalved by a surgical pathologist and 4.0 mm punch biopsies were taken from the outer and inner portions of the tumors (median 4 samples per tumor) as well from as the normal pancreas. The punch biopsies were sent for quantitative analysis of the gemcitabine metabolite incorporation into the DNA of the cells within the pancreatic tumor (i.e., cancer and stromal cells) and normal pancreas (Advion BioServices, Ithaca, N.Y.). […]
The pancreatectomy specimens were evaluated by a pathologist. […] The locations of the tumor biopsy samples that were used to quantify gemcitabine incorporation were recorded as either inner or outer tumor. […] These specimens were then processed as previously described for quantitative analysis of gemcitabine DNA incorporation (Advion Biosciences). […]

[4] = Toxicity monitoring in clinical trial of intraoperative gemcitabine infusion; assay type: in vivo, human
Method: Pancreatic resection was performed using standard techniques and major surgical complications were defined as previously described. […] Serum samples were collected at regular intervals during the operation to determine gemcitabine pharmacokinetics. The MD Anderson Data and Safety Monitoring Board oversaw the study. Drug toxicities were evaluated according to Common Terminology Criteria for Adverse Events version 3.0. Daily postoperative labs including absolute neutrophil counts (ANC) and platelet counts were drawn. Patients received full supportive care and the use of growth factors was permitted for myelosuppression (ANC<0.5×10^9). There were 3 patients with grade III neutropenia or leukopenia, and 3 patients with grade II neutropenia. All cytopenias were transient with nadir at approximately postoperative day 6.

[5] = 12 PDAC patients, IV 500 or 1000 mg/m^2 at 10 mg/m^2/min during resection, CTCAE version 3.0

| Structure (SMILES) | intra-tumoral heterogeneity in delivery [1] | differences in gemcitabine incorporation into the primary tumors [2] | gemcitabine incorporation in the tumors relative to normal pancreas ([3]; 12 patients with localized primary PDAC) | drug delivery to tumor ([3]; intraoperative gemcitabine infusion trial) | thrombocytopenia ([4]; 12 PDAC patients, intraoperative IV infusion) | patients with grade II neutropenia [4, 5] [patients] | patients with grade III neutropenia or leukopenia [4, 5] [patients] | nadir of cytopenias ([4]; all cytopenias transient) [postoperative day] | infectious complications ([4]; whole cohort) |
| --- | --- | --- | --- | --- | --- | --- | --- | --- | --- |
| COc1cccc2c1C(=O)c1c(O)c3c(c(O)c1C2=O)C[C@@](O)(C(=O)CO)C[C@@H]3O[C@H]1C[C@H](N)[C@H](O)[C@H](C)O1 [doxorubicin] | some parts of the tumor not receiving any drug | – | – | – | – | – | – | – | – |
| Nc1ccn([C@@H]2O[C@H](CO)[C@@H](O)C2(F)F)c(=O)n1 [gemcitabine] | – | up to 5 fold | ranged from sub- to supra-normal pancreas levels | measureable drug delivery in all patients | No significant thrombocytopenia | 3 | 3 | ~6 | no infectious complications |
